Measured values from article PMC3608651, “A Broad Profile of Co-Dominant Epitopes Shapes the Peripheral Mycobacterium tuberculosis Specific CD8+ T-Cell Immune Response in South African Patients with Active Tuberculosis” (PLoS ONE, 2013).

Assays:
Assay type in all cases: binding
HLA-A*02:01 [1] = biological target: T1, HLA-A*02:01 (Homo sapiens, UniProt P04439, D140Y/D185E/D98H/E176V/E277Q/G131W/G231S/I119V/I121R/I166T/I218V/L300P/L318F/N151K/N90K/P208A/P217A/Q86G/Q94H/R138H/R169H/T345S); details: percent relative the binding of positive control peptide […]; plate-bound monomer 0.5 µg/ml; duplicated experiments; positive binder >40%
HLA-A*24:02 [2] = biological target: T2, HLA-A*24:02 (Homo sapiens, UniProt P04439, D101N/D140Y/D185E/E176V/E190D/F33S/G103R/G107R/I119L/I121M/I306V/K335N/L105A/L180Q/L300P/N151K/N90K/Q86E/Q94H/R106L/R138H/R89G/T104I/T345S/V100E/W191G/Y123F); details: percent relative the binding of positive control peptide […]; duplicated experiments; positive binder >40%
HLA-A*30:01 [3] = biological target: T3, HLA-A*30:01 (Homo sapiens, UniProt P04439, D140H/D185E/E176W/F33S/G80R/H175R/K168Q/R138E/R41S); details: percent relative the binding of positive control peptide […]; duplicated experiments; positive binder >40%
HLA-A*30:01 [4] = biological target: T3, HLA-A*30:01; assay: affinity assay (ED50); details: peptide titrated 10−4 to 10−9 M
HLA-A*30:01 [5] = biological target: T3, HLA-A*30:01; assay: off-rate assay (t1/2); details: time points 0-8 h
HLA-A*30:02 [6] = biological target: T4, HLA-A*30:02 (Homo sapiens, UniProt P04439, D101N/D140H/D185E/E176R/F33S/G80R/H175R/K168Q/Q94H/R138E/R41S/V100E); details: percent relative the binding of positive control peptide […]; duplicated experiments; positive binder >40%
HLA-A*68:01 [7] = biological target: T5, HLA-A*68:01 (Homo sapiens, UniProt P04439, A269V/D185E/E176V/E277Q/E87N/F33Y/G231S/I121M/I166T/I218V/L180W/L300P/L318F/N151K/P208A/P217A/Q86R/R169H/T345S); details: percent relative the binding of positive control peptide […]; duplicated experiments; positive binder >40%
HLA-A*68:01 [8] = biological target: T5, HLA-A*68:01
HLA-A*68:01 [9] = biological target: T5, HLA-A*68:01; details: time points 0-8 h
HLA-B*07:02 [10] = biological target: T6, HLA-B*07:02 (Homo sapiens, UniProt P01889); details: percent relative the binding of positive control peptide […]; duplicated experiments; positive binder >40%
HLA-B*07:02 [11] = biological target: T6, HLA-B*07:02; assay: affinity assay (ED50); details: peptide titrated 10−4 to 10−9 M
HLA-B*07:02 [12] = biological target: T6, HLA-B*07:02; assay: off-rate assay (t1/2); details: time points 0-8 h
HLA-B*58:01 [13] = biological target: T7, HLA-B*58:01 (Homo sapiens, UniProt P01889, A329T/C349S/D201E/D98Y/E176V/E187L/E204Q/E69T/G107R/I218V/I90N/K202T/L105A/L119I/N104I/N87E/Q89R/Q94S/R106L/R155S/R180L/R86G/S101N/S121R/S35A/S48A/T118I/V127L/V306I/V36M/Y140S/Y91M); details: percent relative the binding of positive control peptide […]; duplicated experiments; positive binder >40%
HLA-C*07:01 [14] = biological target: T8, HLA-C*07:01 (Homo sapiens, UniProt P10321, K90N/S123Y); details: percent relative the binding of positive control peptide […]; duplicated experiments; positive binder >40%
HLA-A*02:01 [15] = biological target: T1, HLA-A*02:01; details: […]; peptide quantity for 50% binding saturation
HLA-A*02:01 [16] = biological target: T1, HLA-A*02:01; details: time points 0-8 h; time when 50% of peptide has dissociated
HLA-A*30:02 [17] = biological target: T4, HLA-A*30:02
HLA-A*30:02 [18] = biological target: T4, HLA-A*30:02; details: time points 0-8 h
HLA-C*07:01 [19] = biological target: T8, HLA-C*07:01; assay: affinity assay (ED50)
HLA-C*07:01 [20] = biological target: T8, HLA-C*07:01; assay: off-rate assay (t1/2); details: time points 0-8 h
HLA-B*58:01 [21] = biological target: T7, HLA-B*58:01
HLA-B*58:01 [22] = biological target: T7, HLA-B*58:01; details: time points 0-8 h
HLA-A*24:02 [23] = biological target: T2, HLA-A*24:02
HLA-A*24:02 [24] = biological target: T2, HLA-A*24:02; details: time points 0-8 h

Substance | Bind A*02:01 (HLA-A*02:01 [1]) | Bind A*24:02 (HLA-A*24:02 [2]) | Bind A*30:01 (HLA-A*30:01 [3]) | Aff A*30:01 (ED50) (HLA-A*30:01 [4]) | O-rate A*30:01 (t1/2) (HLA-A*30:01 [5]) | Bind A*30:02 (HLA-A*30:02 [6]) | Bind A*68:01 (HLA-A*68:01 [7]) | Aff A*68:01 (ED50) (HLA-A*68:01 [8]) | O-rate A*68:01 (t1/2) (HLA-A*68:01 [9]) | Bind B*07:02 (HLA-B*07:02 [10]) | Aff B*07:02 (ED50) (HLA-B*07:02 [11]) | O-rate B*07:02 (t1/2) (HLA-B*07:02 [12]) | Bind B*58:01 (HLA-B*58:01 [13]) | Bind C*07:01 (HLA-C*07:01 [14]) | Aff A*02:01 (ED50) (HLA-A*02:01 [15]) | O-rate A*02:01 (t1/2) (HLA-A*02:01 [16]) | Aff A*30:02 (ED50) (HLA-A*30:02 [17]) | O-rate A*30:02 (t1/2) (HLA-A*30:02 [18]) | Aff B*58:01 (ED50) (HLA-B*58:01 [21]) | O-rate B*58:01 (t1/2) (HLA-B*58:01 [22]) | further results
WL S ANR AV K | 13% | 40% | 179% | 1E -06 M | 30 min | 6% | 139% | 2E -07 M | 126 min | 49% | 2E -06 M | 42 min | 1% | 16% | – | – | – | – | – | – | –
LSMAGSSAM | 72% | 14% | 0% | – | – | 79% | 51% | 1E -06 M | 132 min | 92% | 3E -07 M | 156 min | 0% | 71% | 2e-07 M | 84 min | 3E -06 M | 66 min | – | – | Aff C*07:01 (ED50) (HLA-C*07:01 [19]): 3E -06 M; O-rate C*07:01 (t1/2) (HLA-C*07:01 [20]): 72 min
AAYHPQQFI | 56% | 54% | 83% | 2E -07 M | 30 min | 34% | 47% | 3E -05 M | 228 min | 9% | – | – | 64% | 0% | 6E -07 M | 72 min | – | – | 4E -08 M | 48 min | –
AMKGDLQSS | 89% | 42% | 129% | 2E -06 M | 30 min | 47% | 0% | – | – | 9% | – | – | 0% | 23% | 2E -07 M | 102 min | 1E -07 M | 120 min | – | – | Aff A*24:02 (ED50) (HLA-A*24:02 [23]): 400000 nM; O-rate A*24:02 (t1/2) (HLA-A*24:02 [24]): 18 min
YAGSLSALL | 66% | 81% | 0% | – | – | 64% | 13% | – | – | 41% | 1e-05 M | 36 min | 58% | 19% | – | – | 2e-07 M | 54 min | 3E -08 M | 42 min | Aff A*24:02 (ED50) (HLA-A*24:02 [23]): 1000 nM; O-rate A*24:02 (t1/2) (HLA-A*24:02 [24]): 72 min
MGRDIKVQF | 0% | 25% | 0% | – | – | 61% | 10% | – | – | 41% | 8e-07 M | 18 min | 61% | 68% | – | – | 7e-08 M | 18 min | 3e-07 M | 18 min | Aff C*07:01 (ED50) (HLA-C*07:01 [19]): 8e-08 M; O-rate C*07:01 (t1/2) (HLA-C*07:01 [20]): 12 min
